One may read the IC50 as the concentration at which inhibition is half-maximal.

The text below walks through data of patent publication US20210094919A1, “KRAS MUTANT PROTEIN INHIBITORS” (Jacobio Pharmaceuticals Co., Ltd., priority 2019, published 2021).

This assay addresses T1, HIS-KRAS (G12C, aa 2-185) (Homo sapiens, UniProt P01116, G12C).
T1 construct: HIS-KRAS (G12C, aa 2-185, Sino biological); purchased Sino biological
Nature of the assay: SOS1 catalyzed nucleotide exchange assay (TR-FRET). It is filed as biochemical. Particulars: GDP-loaded HIS-KRAS (G12C) pre-incubated with compound 1 hour, SOS1 ExD and BODIPY FL GTP added, 4 hours at 25° C. The method, then:
HIS-KRAS (G12C, aa 2-185, Sino biological) was diluted to 5 μM in EDTA buffer (20 mM HEPES, pH 7.4, 50 mM NaCl, 10 mM EDTA, 0.01% (v/v) Tween-20) and incubated for 30 min at 25° C. The EDTA pretreated HIS-KRAS (G12C) was diluted to 12 nM in assay buffer (25 mM HEPES, pH 7.4, 120 mM NaCl, 5 mM MgCl2, 1 mM DTT, 0.01% (v/v) Tween 20, 0.1% (w/v) BSA) containing 120 nM GDP (Sigma) and MAb Anti 6HIS-Tb cryptate Gold (Cisbio) and incubated for 1 hour at 25° C. to prepare GDP-loaded HIS-KRAS (G12C). The GDP-loaded HIS-KRAS (G12C) was pre-incubation with diluted compounds in a 384-well plate (Greiner) for 1 hour, then purified SOS1 ExD (Flag tag, aa 564-1049) and BODIPY™ FL GTP (Invitrogen) were added to the assay wells (Final concentration: 3 nM HIS-KRAS (G12C), 2 μM SOS1 ExD, 80 nM BODIPY™ FL GTP, 21 ng/mL MAb Anti 6HIS-Tb cryptate Gold) and incubated for 4 hours at 25° C. TR-FRET signals were then read on Tecan Spark multimode microplate reader. The parameters were F486: Excitation 340 (35) nm, Emission 486 (10) nm, Lag time 100 las, Integration time 200 las; F515: Excitation 340 (35) nm, Emission 515 (10) nm, Lag time 100 las, Integration time 200 las. TR-FRET ratios for each individual wells were calculated by equation: TR-FRET ratio=(Signal F515/Signal F486)*10000. Then the data were analyzed using a 4-parameter logistic model to calculate IC50 values.

T1 sequence (P01116 2-185 isoform P01116-2 G12C): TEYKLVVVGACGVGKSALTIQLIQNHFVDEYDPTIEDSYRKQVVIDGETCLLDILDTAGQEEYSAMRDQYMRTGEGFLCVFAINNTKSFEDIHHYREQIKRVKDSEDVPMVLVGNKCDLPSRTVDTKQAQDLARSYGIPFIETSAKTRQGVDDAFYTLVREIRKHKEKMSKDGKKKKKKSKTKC

Consider `C=CC(=O)N1CCN(c2c(C#N)c(OC[C@@H]3CCCN3C)nc3c2CCN(c2cccc4cccc(C)c24)C3)CC1CC#N` (stereo partly drawn) [Compound 1, 4-(4-acryloyl-3-(cyanomethyl)piperazin-1-yl)-7-(8-methylnaphthalen-1-yl)-2-(((S)-1-methylpyrrolidin-2-yl)methoxy)-5,6,7,8-tetrahydro-1,7-naphthyridine-3-carbonitrile], for which the half-inhibitory concentration (IC50) was determined as 53.1 nM.

As to `C=CC(=O)N1CCN(c2c(C#N)c(OC[C@@H]3CCCN3C)nc3c2CCN(c2cccc4cccc(C)c24)C3)CC1` [Compound 2, (S)-4-(4-acryloylpiperazin-1-yl)-7-(8-methylnaphthalen-1-yl)-2-((1-methylpyrrolidin-2-yl)methoxy)-5,6,7,8-tetrahydro-1,7-naphthyridine-3-carbonitrile], the IC50 was > 1000 nM.

On to `C=CC(=O)N1[C@H](C)CN(c2c(C#N)c(OC[C@@H]3CCCN3C)nc3c2CCN(c2cccc4cccc(C)c24)C3)C[C@@H]1C` [Compound 3, 4-((3S,5R)-4-acryloyl-3,5-dimethylpiperazin-1-yl)-7-(8-methylnaphthalen-1-yl)-2-(((S)-1-methylpyrrolidin-2-yl)methoxy)-5,6,7,8-tetrahydro-1,7-naphthyridine-3-carbonitrile], for which the concentration for half-maximal inhibition (IC50) was > 1000 nM.

Take `C=CC(=O)N1CC(Nc2c(C#N)c(OC[C@@H]3CCCN3C)nc3c2CCN(c2cccc4cccc(C)c24)C3)C1` [Compound 4, (S)-4-((1-acryloylazetidin-3-yl)amino)-7-(8-methylnaphthalen-1-yl)-2-((1-methylpyrrolidin-2-yl)methoxy)-5,6,7,8-tetrahydro-1,7-naphthyridine-3-carbonitrile]: the IC50 was > 1000 nM.

Regarding `C=CC(=O)N1CCN(c2c(C#N)c(OC[C@@H]3CCCN3C)nc3c2CCN(c2cccc4cccc(C)c24)C3)C[C@H]1C` [Compound 5, 4-((R)-4-acryloyl-3-methylpiperazin-1-yl)-7-(8-methylnaphthalen-1-yl)-2-(((S)-1-methylpyrrolidin-2-yl)methoxy)-5,6,7,8-tetrahydro-1,7-naphthyridine-3-carbonitrile], the IC50 is > 1000 nM.

On to `C=CC(=O)N1CCN(c2c(C#N)c(OC[C@@H]3CCCN3C)nc3c2CCN(c2cccc4cccc(C)c24)C3)C[C@@H]1C` [Compound 6, 4-((S)-4-acryloyl-3-methylpiperazin-1-yl)-7-(8-methylnaphthalen-1-yl)-2-(((S)-1-methylpyrrolidin-2-yl)methoxy)-5,6,7,8-tetrahydro-1,7-naphthyridine-3-carbonitrile], for which the IC50 is > 1000 nM.
